Data published in US20240207249A1, “COMPOSITIONS AND METHODS FOR TREATING, PREVENTING OR REVERSING AGE-ASSOCIATED INFLAMMATION AND DISORDER” (Brown University, priority 2019, published 2024).
Entries after “also recorded” stand apart in the source; their conditions may differ. Where two headings read alike, the source gives them in different places.

How the values were obtained:
[1] = target: human L1 EN domain (1-239) (Homo sapiens (Human), UniProt O00370); test: plasmid nicking L1 EN activity biochemical assay
Chain of human L1 EN domain (1-239) (O00370 1-239): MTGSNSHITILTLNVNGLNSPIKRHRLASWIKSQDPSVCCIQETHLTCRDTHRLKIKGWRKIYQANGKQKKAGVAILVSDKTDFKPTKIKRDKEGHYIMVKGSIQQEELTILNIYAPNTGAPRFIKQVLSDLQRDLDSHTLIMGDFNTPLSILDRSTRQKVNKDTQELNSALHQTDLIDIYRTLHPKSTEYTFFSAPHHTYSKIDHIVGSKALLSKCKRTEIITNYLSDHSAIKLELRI

APE-1 = APE-1 (Homo sapiens (Human), UniProt P27695); settings: cited from earlier work
Chain of APE-1 (P27695 whole entry): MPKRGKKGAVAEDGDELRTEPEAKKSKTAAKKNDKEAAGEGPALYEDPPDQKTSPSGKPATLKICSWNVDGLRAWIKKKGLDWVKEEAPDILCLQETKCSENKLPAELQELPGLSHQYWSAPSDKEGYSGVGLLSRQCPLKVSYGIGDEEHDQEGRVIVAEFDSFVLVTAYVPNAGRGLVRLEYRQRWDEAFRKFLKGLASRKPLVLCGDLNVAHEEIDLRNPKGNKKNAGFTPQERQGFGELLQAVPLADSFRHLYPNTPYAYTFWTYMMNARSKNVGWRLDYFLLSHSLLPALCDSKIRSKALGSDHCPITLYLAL

L1 retrotransposition = L1 retrotransposition dual-luciferase reporter cellular assay in HeLa-M2 cells; format: cell-based, human; settings: for Cellular assay: retrotransposition efficiency (mean ± SD): Table 2
L1 EN = L1 EN (Homo sapiens (Human), UniProt O00370); test: fluorescent oligonucleotide nicking assay; format: biochemical
Chain of L1 EN (O00370 1-239): as the sequence (O00370 1-239) above

[2] = system: senescent human diploid fibroblasts (LF1); test: RT-qPCR of inflammatory markers in replicative senescent cells; format: cell-based
[3] = system: full-length L1 (ORF1 and ORF2) in HeLa Tet-On cells; test: L1-induced DNA damage, γ-H2AX immunofluorescence, full-length L1 expression; format: cell-based, human
[4] = solubility remark in cellular assay column; settings: reason for no cellular data
[5] = system: L1 EN domain in HeLa Tet-On cells; test: L1-induced DNA damage, γ-H2AX immunofluorescence and neutral comet assay, EN domain-only expression; format: cell-based, human
[6] = system: senescent human diploid fibroblasts (LF1); test: RNA-seq transcriptomic analysis of senescent cells; format: cell-based; settings: IFN gene set and aging gene set
HeLa cells = settings: human
[7] = in vitro assays with purified EN

| Compound | L1 EN inhibition in the biochemical assay (in words) [1] | Biochemical assay: maximum inhibition ([1]; plasmid nicking assay) | effect on retrotransposition in the cellular reporter assay (in words) (L1 retrotransposition) | Biochemical assay: concentration at maximum inhibition [1] | Biochemical assay: maximum inhibition [1] | Biochemical assay: concentration at maximum inhibition ([1]; plasmid nicking assay) | other results |
| --- | --- | --- | --- | --- | --- | --- | --- |
| CCn1c2ccccc2c2cc(/C=N\Nc3cc(C)nc4cc5c(cc34)OCO5)ccc21 [AD1, reference compound] | did not inhibit the L1 EN | No inhibition |  |  |  |  | Ki (APE-1): 0.12 µM |
| O=C(O)[C@H](CCCCNc1ccc([N+](=O)[O-])cc1[N+](=O)[O-])Nc1ccc([N+](=O)[O-])cc1[N+](=O)[O-] [AD2] | effective against the L1 EN |  | did not significantly impact retrotransposition in cells | 1 mM FIG. 2B | 100% inhibition at |  | in vitro activity against EN (in words) (L1 EN): clear activity in vitro; Ki (APE-1): 13 µM |
| C/C(C[C@H](c1ccccc1)c1c(O)c2ccccc2oc1=O)=N\Nc1ccc([N+](=O)[O-])cc1[N+](=O)[O-] [AD3] |  |  | best inhibition in the retrotransposition assay | 250 μM FIG. 2C | 100% inhibition at |  | effect on inflammatory markers in senescent cells (in words) [2]: show efficacy; inhibition of L1-induced DNA damage (in words) [3]: best inhibition |
| O=[N+]([O-])c1ccc(Nc2ccc(Nc3ccccc3)c(S(=O)(=O)O)c2)c([N+](=O)[O-])c1 [AD4] |  |  |  | 1 mM FIG. 2D | 100% inhibition at |  |  |
| Cc1cc(=O)oc2c3c(ccc12)O/C(=N/Nc1ccc([N+](=O)[O-])cc1[N+](=O)[O-])C3=O [AD5] |  |  | did not significantly impact retrotransposition in cells | 50 μM FIG. 2E | 100% inhibition |  | solubility (in words) [4]: (poor solubility); in vitro activity against EN (in words) (L1 EN): clear activity in vitro |
| Cc1cc([N+](=O)[O-])ccc1NC(=S)NC(=O)C(c1ccccc1)c1ccccc1 [AD6] |  | 90% inhibition at |  |  |  | 750 μM FIG. 2F | Cellular assay: retrotransposition efficiency (mean ± SD) (L1 retrotransposition; 10 μM): 10 μM: 79.1 |
| C/C(=N/Nc1ccc([N+](=O)[O-])cc1[N+](=O)[O-])c1ccc(-n2nncc2C(C)(C)C)cc1 [AD7] |  |  | high activity in the retrotransposition assay | 500 μM FIG. 2F | 80% inhibition at |  | in vitro activity against EN (in words) (L1 EN): relatively low efficacy in vitro |
| C[C@@H](Nc1ccc([N+](=O)[O-])cc1[N+](=O)[O-])C(=O)O [AD8] |  |  |  | 15 mM FIG. 2G | 100% inhibition at |  |  |
| C[C@H]1C[C@H](C)CN(CCCNc2ccc(C(=O)Nc3ccc(C(F)(F)F)cc3)cc2[N+](=O)[O-])C1 [AD9] |  | 80% inhibition at | high activity in the retrotransposition assay |  |  | 750 μM FIG. 2H | in vitro activity against EN (in words) (L1 EN; [7]): relatively low efficacy in vitro |
| O=C(NC(NC(=O)c1ccccc1)c1cccc([N+](=O)[O-])c1)c1ccccc1 [AD10] |  | 100% inhibition at |  |  |  | 100 μM FIG. 21 | Cellular assay: retrotransposition efficiency (mean ± SD) (L1 retrotransposition; 50 μM): 50 μM: 68.9 |
| O=C(CCCCCCCCCCC(=O)Nc1cccc([N+](=O)[O-])c1)Nc1cccc([N+](=O)[O-])c1 [AD11] |  |  |  | 10.0 μM FIG. 2J | 100% inhibition at |  | inhibition of L1-induced DNA damage (in words) [5]: better efficacy |
| COc1ccc2c(c1)C(=O)N(CCc1ccc(S(=O)(=O)NC(=O)NC3CCCCC3)cc1)C(=O)C2(C)C [AD12, Gliquidone, reference compound] |  |  | reduced retrotransposition in the cellular reporter assay; also recorded: high activity in the retrotransposition assay; also recorded: best inhibition in the retrotransposition assay |  |  |  | gene set expression by RNA-seq (in words) [6]: decreased expression; effect on inflammatory markers in senescent cells (in words) ([2]; 1 month treatment): show efficacy; inhibition of L1-induced DNA damage (in words) [3]: best inhibition |
| O=C1c2ccc(Oc3ccc4c(c3)C(=O)N(Nc3ccc([N+](=O)[O-])cc3[N+](=O)[O-])C4=O)cc2C(=O)N1Nc1ccc([N+](=O)[O-])cc1[N+](=O)[O-] [AD13] | effective in the biochemical assay |  |  | 500 μM FIG. 2L | 100% inhibition at |  |  |
| CCC1=C(C)CN(C(=O)NCCc2ccc(S(=O)(=O)NC(=O)N[C@H]3CC[C@H](C)CC3)cc2)C1=O [AD15, Glimepiride, reference compound] | inhibited L1 EN activity in the biochemical assay | 100% inhibition at | reduced retrotransposition in the cellular reporter assay |  |  | 2.5 mM FIG. 2N | Cellular assay: retrotransposition efficiency (mean ± SD) (L1 retrotransposition; 50 μM): 50 μM: 17.1 |
| Nn1cnn2c(SCC(=O)Cc3ccc(-c4nc5cc(NC(=O)CSc6nnc7n(N)cnn67)ccc5o4)cc3)nnc12 [AD16] | effective in the biochemical assay | 50% inhibition at |  |  |  | 500 μM FIG. 20 | inhibition of L1-induced DNA damage (in words) ([5]; EN domain-only): better efficacy |
| O=C(Nc1ccc(S(=O)(=O)NCc2ccco2)cc1)c1cc(NS(=O)(=O)c2cccs2)cc(NS(=O)(=O)c2cccs2)c1 [AD18] | effective in the biochemical assay | 50% inhibition at | did not significantly impact retrotransposition in cells |  |  | 750 μM FIG. 2Q | in vitro activity against EN (in words) (L1 EN; [7]): clear activity in vitro |
| COc1ccccc1NC(=O)Nc1nc(Nc2ccc(S(=O)(=O)Nc3nc(C)cc(C)n3)cc2)nc(Oc2cccc(O)c2)n1 [AD19] | effective in the biochemical assay | 75% inhibition at |  |  |  | 250 μM FIG. 2R |  |
| Cc1ccc(NC(=O)CSc2nc(-c3ccccc3F)nc3c2Cc2c(CO)cnc(C)c2O3)cc1 [AD28] |  |  |  |  |  |  | Toxicity at concentration (HeLa cells): Toxicity at 2.5 μM |
| O=C(NCCCCCCNC(=O)Nc1cccc([N+](=O)[O-])c1)Nc1cccc([N+](=O)[O-])c1 [AD32] |  |  | high activity in the retrotransposition assay |  |  |  | in vitro activity against EN (in words) (L1 EN): relatively low efficacy in vitro |
| COc1ccc([N+](=O)[O-])cc1NC(=O)c1ccc2c(c1)N(Cc1cc(C)ccc1C)C(=O)c1ccccc1S2(=O)=O [AD34] |  |  | did not significantly impact retrotransposition in cells |  |  |  | in vitro activity against EN (in words) (L1 EN; [7]): clear activity in vitro |
| COc1ccc(OC)c(NS(=O)(=O)c2ccc(NS(=O)(=O)c3cccc([N+](=O)[O-])c3)cc2)c1 [AD36] |  |  | high activity in the retrotransposition assay |  |  |  | in vitro activity against EN (in words) (L1 EN; [7]): relatively low efficacy in vitro |
| O=C(Cn1nc(-c2ccc(Br)cc2)ccc1=O)NC[C@H]1CC[C@H](C(=O)O)CC1 [AD43] |  |  | high activity in the retrotransposition assay |  |  |  | in vitro activity against EN (in words) (L1 EN; [7]): relatively low efficacy in vitro |
